Measured values from a melting point compilation (Tetko et al.; mined from patent text by program, amines drawn as free bases though some values may be those of a salt).

melting point [°C] | SMILES
160 to 161 | CCOC(=O)CC(=O)Nc1c(-c2ccccc2)nn2ccccc12
166 to 168 | Cc1c(NC(=O)c2ccc(-c3ccc(F)cc3)cc2)ccc2cc(CN3CCCCCC3)cnc12
194 | CNC(=O)C(NC(=O)c1cn(C)nc1C(F)(F)F)C(CO)c1ccccc1 (configuration not stated)
276 to 279 | Cn1c2c(c(=O)n3nc(-c4ccccc4)cc13)CN(C1CCCCC1)C2=O
> 300 | O=c1nc2c(c3ncnn13)=NC(c1ccccc1)=N2
230 to 232 | CC(C)(C)c1cc(NC(=O)Nc2csc(-c3cccnc3)n2)no1
203 to 208 | CC(Cc1c[nH]c2ccccc12)(NC(=O)OC1C2CC3CC(C2)CC1C3)C(=O)NC1(C(=O)O)CCCCC1 (configuration not stated)
127 to 128 | CCCOc1ccccc1-c1ccc(C#N)c(=S)[nH]1
157 to 160 | CC(C)(C)c1csc(-c2cc3cc(CCC(=O)O)ccc3o2)n1
179 | O=P(Cc1ccccc1O)(c1ccccc1)c1ccccc1
204 to 206 | CC1(C)OC(=S)Nc2ccc(-c3cc(F)cc(C(F)(F)F)c3)cc21
176 to 177 | CN1C(O)=C(C(=O)NCc2ccccc2)c2ccsc2S1(=O)=O
147 to 148 | CCOC(=O)c1cc(OC)c2c(C)c(CCN(CC)CC)c(=O)oc2c1Cl
136 | CSc1nn(C(=O)NC2CCCCC2)c(=O)n1C
132 | CC(Oc1ccc2nc(N)sc2c1)c1cc(F)cc(F)c1 (configuration not stated)
147 to 149 | O=C(OCc1ccccc1)c1ccc(O)c(O)c1
237 to 238 | O=c1cc(-c2n[nH]c3ccccc23)oc2ccccc12
169 to 171 | Cc1[nH]c2ccc(F)cc2c1C(=O)Nc1ccc(OCC(C)(C)C)c(C#N)c1
81 to 83 | CC#CCOc1ccc(S(=O)(=O)NC2(C(=O)OC)CCCC2)cc1
124 to 126 | COc1ccc(-c2ccc(C(C)=O)cc2[N+](=O)[O-])cc1
63 to 65 | COC1=C(OC)C(=O)C2=C(CCC(CCOc3cc(OC)cc(OC)c3)CC2)C1=O
148 to 153 | N#CC(=CNc1ccccc1)Cc1ccc2ccccc2c1

The remaining lines, values behind:

SMILES | melting point [°C]
O=c1c2c(n(-c3ccccc3)c3ncccc13)CCC2 | 235 to 237
CCC(CC)/C(N)=C(\C#N)C(=O)Cl | 102
Cc1cc(=O)[nH]c2ccc(Br)cc12 | 292 to 299
COC(=O)c1ccc(OC)c(NC(=NCl)c2ccc(Cl)cc2)c1 | 120
COC(=O)CC1OC(=O)c2ccccc21 (configuration not stated) | 62 to 63
CCOC(=O)c1cc(CCc2cc3c(s2)-n2c(C)nnc2CN=C3c2ccccc2Cl)ccc1CC(=O)O | 128 to 132
CC(C)C[C@H](NC(=O)OCc1ccccc1)C(=O)NCCCNC(=O)[C@H](CC(C)C)NC(=O)OCc1ccccc1 | 177 to 178
COc1nc(-c2ccccc2)c(-c2ccc(=O)n(C(C)C)n2)cc1C#N | 187 to 189
O=C(CCCO)NCc1cccc(Nc2n[nH]c3ncnc(Nc4cccc(Cl)c4)c23)c1 | 182 to 184
Cc1cc(-c2nc3c(s2)C(=O)c2ccccc2C3=O)oc1C | 250
COc1ccc(Cn2c(=O)n(C3OC(CO)C(O)C3O)c3nc(N)[nH]c(=O)c32)cc1 (configuration not stated) | > 230
COc1c(Nc2ncc(Cl)c(Nc3ccccc3S(=O)(=O)N(C)C)n2)ccc2c1CCC(NCC(F)F)CC2 (configuration not stated) | 118
CCOC(=O)c1csc([N+](=O)[O-])c1Br | 94 to 95
COc1cc(CCCCC2OC(=O)NC2=O)ccc1O (configuration not stated) | 115 to 116
CC1(C)C(=O)N(C(=O)NCC2(O)CCN(CC3(C(=O)O)CCC3)CC2)c2cc(F)ccc21 | 159
O=C(Nc1ccc2ccc(Cl)cc2n1)c1ccccc1 | 133
O=C(O)c1ccccc1Nc1cccc(Br)c1 | 169 to 171
O=C1CNc2ncc(I)cc2N1Cc1c(Cl)cccc1Cl | > 200
Oc1ccc(-c2ncc3ncc(-c4cccc(O)c4)cc3n2)cc1 | 256 to 257
CCOC(=O)C1C=Nc2c(ccc(F)c2F)C1=O (configuration not stated) | 270
COc1cc(N)c(Cl)cc1C(=O)NN1CCN2CCCCC2C1 (configuration not stated) | 118 to 119
Cn1c(=O)n(Cc2ccc(F)cc2)c(=O)c2cc(C#CCc3ccccc3)ccc21 | 160
CCS(=O)c1cn(C)cc(-c2cccc(C(F)(F)F)c2)c1=O (configuration not stated) | 146 to 148
COC(=O)C1=C(N(c2ccccc2)c2ccccc2)CC(C(=O)OC)=C(N(c2ccccc2)c2ccccc2)C1 | 236 to 238
CN1CCN(C2=Nc3ccccc3N(C=O)c3ccncc32)CC1 | 196

SMILES | melting point [°C]
CN1CCC(C(O)(c2ccc(F)cc2)c2ccc3ccccc3c2)CC1 (configuration not stated) | 164 to 169
NC(=NCC(F)(F)F)Nc1ccnc(CSCCN2C(=O)c3ccccc3C2=O)n1 | 167 to 168
COC(=O)Cc1cc(Br)c(S(=O)(=O)c2ccc(O)c(C(C)C)c2)c(Br)c1 | 159 to 160
CS(=O)(=O)Nc1ccc(C(=O)NCCN2CCc3ccsc3C2c2ccccc2)cc1 (configuration not stated) | 185 to 187
Nc1cccc2ccc(OCC3CC3)cc12 | 49 to 50
CC(C)(C)OC(=O)N1CCn2c(cc3ccccc32)C1 | 103 to 105
O=C1CCN(Cc2cc([N+](=O)[O-])ccc2O)CC1C(c1ccccc1)c1ccccc1 (configuration not stated) | 177 to 178
O=S(=O)(c1ccc(Cl)cc1)C1(c2cccnc2Cl)CCCCCC1 | 168 to 169
O=C(COCCCl)Nc1ccc([N+](=O)[O-])cc1 | 101 to 102
COC(Cc1ccc(OCCc2nc(C(C)(C)C)oc2C)c2ccsc12)C(=O)O (configuration not stated) | 163 to 165
CC(C#N)(c1ccc(Cl)cc1)c1ccc(N)cc1Cl (configuration not stated) | 135
COC(=O)c1ccc(OCc2ccc3ccccc3n2)cc1C1(c2ccccc2)CC2CCC1C2 (configuration not stated) | 106 to 107
CC(=O)Nc1nc(CCc2ccc(CC(=O)NC(=N)N)s2)cs1 | 188 to 190
CN1CCC(c2c[nH]c3ccc(NC(=O)c4cccc(F)c4)nc23)CC1 | 129 to 130
CC(C)(C)c1cc(Nc2ccc(CCC(=O)O)cc2)cc(C(C)(C)C)c1O | 140 to 142
CN1CCN(C(=O)c2cc([N+](=O)[O-])cc3c2OCCO3)CC1 | 218
COC(=O)c1cc(C(C)=O)cs1 | 94 to 96
NCCc1c(Br)[nH]c2ccc3c(=O)[nH]ccc3c12 | 252
CS(=O)(=O)c1ccnc(Oc2ccccc2)n1 | 86 to 87
COC(=O)c1c[nH]c(C=O)c1 | 97 to 99
CC(C)Cc1cc2c(s1)C(C(=O)O)CC2=O (configuration not stated) | 80
COc1ccc2cc(-c3cnc(-c4cn(C)c5ccccc45)o3)ccc2c1 | 187 to 189
CC(C)n1cc(-c2nc(C#N)c(N)nc2-c2ccc(F)cc2)ccc1=O | 207
O=C(NCCC(=O)N1CCCCC1)c1ccc(-c2ccc3nnn(Cc4ccc5ncccc5c4)c3n2)cc1F | 109 to 111
c1ccc(COc2ccc(N3CCN(Cc4nc5ccccc5[nH]4)CC3)nc2)cc1 | 62 to 64
